Tests used:
[1] = molecular target: T1, gastric H^+ /K^+ -ATPase (Sus scrofa, UniProt P19156); assay: gastric H+/K+-ATPase inhibition in isolated porcine gastric microsomes (phosphate release); type: biochemical
T1 construct: preparing the microsomes from hog gastric mucosa; from tissue; host or cells: hog gastric mucosa (microsomes)
Experimental: The activity of the compounds of the present invention as anti-ulcer agents, useful in the treatment of gastric disease in mammals, such as peptic ulcers, etc., is assessed by their ability to inhibit gastric H^+ /K^+ -ATPase, using isolated porcine gastric microsomes and essentially employing a modification of the method first described by G. Saccomani et al., as initially reported in Biochimica Biophysica Acta, Vol. 465, p. 311 (1977). The modification involves preparing the microsomes from hog gastric mucosa according to the procedure first described by L-A. Yeh et al., in Membrane Biochemistry, Vol. 9, p. 129 (1991). The H^+ /K^+ -ATPase enzyme activity is assayed according to the procedure described by N. Chang et al., in Biochimica Biophysica Acta, Vol. 464, p. 313 (1977), using a medium containing […], 3 mM ATP, 50 mM Tris-HCl (pH 7.4) and 2 mM MgCl2 with or without 10 mM KCl in a final volume of 1.1 mL. The incubation step is initially carried out at 37° C. for a period of 15 minutes. The reaction is then terminated by the addition of 100 μL of 50% TCA (trichloroacetic acid). Phosphate release is next measured spectrophotometrically in the manner described by C. H. Fiske et al., in the Journal of Biological Chemistry, Vol. 66, p. 375 (1925).

[2] = tested on: osteoclasts; assay: bone slice assay: bone resorption by isolated osteoclasts (scanning electron microscopy); type: cell-based, neonatal rat; settings: isolated osteoclasts on bone slices
Experimental: 155, (1985), as well as in Endocrinology, Vol. 116, p. 234 (1985). In this assay, osteoclasts are mechanically disaggregated from neonatal rat long bones into Hepes-buffered medium 199 (available from Flow Laboratories of Irvine, […] in the United Kingdom). The suspension is agitated with a pipette and the larger fragments were allowed to settle for a period of 30 seconds. The cells are then added to two wells of a multiwell-dish containing bone slices, with each of said slices measuring 2.5 mm^2. After incubating at 37° C. for a period of 15 minutes, the aforesaid bone slices are then removed, washed in medium 199 and placed in individual wells of a 96-well plate (also available from Flow Laboratories). These latter bone slices are then incubated overnight in a total volume of […] of culture medium consisting of 10% newborn calf-serum (from Flow Laboratories) in Hanks-buffered MEM (also from Flow Laboratories) in the presence or absence of the test compound. Bone resorption is quantified by means of scanning electron microscopy. […] The number and size of the osteoclastic excavations, and the plan area of bone resorbed is recorded. Differences between groups are then analyzed by means of Student's t-Test.

T1 sequence (P19156 2-1034 limits assumed): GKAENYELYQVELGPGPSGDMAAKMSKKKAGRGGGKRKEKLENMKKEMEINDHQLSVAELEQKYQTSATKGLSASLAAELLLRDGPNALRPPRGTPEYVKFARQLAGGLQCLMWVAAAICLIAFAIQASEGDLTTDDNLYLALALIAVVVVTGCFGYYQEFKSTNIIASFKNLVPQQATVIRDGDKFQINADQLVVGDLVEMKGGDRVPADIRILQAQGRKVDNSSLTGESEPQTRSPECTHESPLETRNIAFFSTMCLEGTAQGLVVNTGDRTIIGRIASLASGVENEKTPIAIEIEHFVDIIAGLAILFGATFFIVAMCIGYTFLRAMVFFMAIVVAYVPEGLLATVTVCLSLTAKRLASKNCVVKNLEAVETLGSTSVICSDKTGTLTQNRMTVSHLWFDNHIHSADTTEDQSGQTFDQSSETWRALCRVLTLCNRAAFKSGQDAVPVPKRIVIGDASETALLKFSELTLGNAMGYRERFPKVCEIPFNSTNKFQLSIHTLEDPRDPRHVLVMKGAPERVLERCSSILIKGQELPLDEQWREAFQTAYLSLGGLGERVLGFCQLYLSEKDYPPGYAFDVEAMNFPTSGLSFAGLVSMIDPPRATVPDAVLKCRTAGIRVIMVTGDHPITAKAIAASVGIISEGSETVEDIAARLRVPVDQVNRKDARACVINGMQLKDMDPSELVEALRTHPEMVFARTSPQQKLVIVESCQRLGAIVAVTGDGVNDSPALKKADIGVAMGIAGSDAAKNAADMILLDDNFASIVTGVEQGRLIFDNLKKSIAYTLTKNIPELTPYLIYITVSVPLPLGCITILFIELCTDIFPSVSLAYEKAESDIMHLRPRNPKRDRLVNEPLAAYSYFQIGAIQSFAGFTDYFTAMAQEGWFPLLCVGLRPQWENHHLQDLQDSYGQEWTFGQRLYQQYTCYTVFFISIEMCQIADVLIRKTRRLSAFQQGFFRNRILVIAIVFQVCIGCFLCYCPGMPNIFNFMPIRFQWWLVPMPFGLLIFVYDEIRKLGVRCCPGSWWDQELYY
T1 sequence (P18434 whole entry partner): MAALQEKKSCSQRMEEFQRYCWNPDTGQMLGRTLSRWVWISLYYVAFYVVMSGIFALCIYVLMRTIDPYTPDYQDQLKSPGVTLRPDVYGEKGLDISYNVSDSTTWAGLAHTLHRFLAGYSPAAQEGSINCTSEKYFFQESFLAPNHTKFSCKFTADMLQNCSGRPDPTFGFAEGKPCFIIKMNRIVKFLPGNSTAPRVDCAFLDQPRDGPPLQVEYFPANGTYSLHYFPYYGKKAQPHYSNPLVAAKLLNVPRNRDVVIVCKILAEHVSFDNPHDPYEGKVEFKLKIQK

CCOC(=O)CCC(=O)c1cnc2c(OC)cccc2c1Nc1ccccc1C [Example 1, 3-(3-ethoxycarbonylpropionyl)-8-methoxy-4-(2-methylphenylamino)quinoline]
inhibition at 10 µM ([1]; at 10 μM): ~50% | nature of H+/K+-ATPase inhibition ([1]; porcine gastric microsomes): both reversibly and specifically | IC50 ([1]; porcine gastric microsomes, 37° C., 15 minutes, pH 7.4, read-out: IC50 value range, inhibition of gastric H+/K+-ATPase): 10 to 20 µM | minimal effective concentration ([2]; Rattus norvegicus, Osteoclast, overnight incubation, dose-responsive, read-out: concentration level at which statistically significant inhibition of bone resorption occurs): 0.1 µM | inhibition of lacunae formation and bone resorption (in words) [2]: potent inhibitor of lacunae formation and of resultant bone resorption

Source: US5362743A, “Aminoquinoline derivatives” (Pfizer Inc., priority 1993, dated 1994)
